Data taken from ChEMBL document CHEMBL4480391, “Discovery and synthesis of sulfur-containing 6-substituted 5,8-dimethoxy-1,4-naphthoquinone oxime derivatives as new and potential anti-MDR cancer agents” (Eur J Med Chem, 2019).
pIC50: −log10 of the molar value.

How the values were obtained:
[1] = test system: HCT-15; assay: Cytotoxicity against human HCT15 cells after 72 hrs by MTT assay; type: functional, cell-based; conditions: HCT-15, 72 h
[2] = Selectivity index, ratio of IC50 for human HSF cells to IC50 for human HCT15 cells; type: toxicity; conditions: HSF cells versus HCT15 cells, read-out: Ratio IC50
[3] = test system: MGC-803; assay: Cytotoxicity against human MGC803 cells after 72 hrs by MTT assay; type: functional, cell-based; conditions: MGC-803, 72 h
[4] = Cytotoxicity against human HSF cells after 72 hrs by MTT assay; type: cell-based
[5] = test system: K562; assay: Cytotoxicity against human K562 cells after 72 hrs by MTT assay; type: functional, cell-based; conditions: K562, 72 h
[6] = test system: A549/TR; assay: Cytotoxicity against human A549/TAX cells after 72 hrs by MTT assay; type: functional, cell-based
[7] = Selectivity ratio of IC50 for human MCF7 cells to IC50 for human MCF7/ADR cells; type: functional
[8] = Selectivity ratio of IC50 for human A549 cells to IC50 for human A549/TAX cells; type: functional
[9] = test system: A549; assay: Cytotoxicity against human A549 cells after 72 hrs by MTT assay; type: functional, cell-based; conditions: A549, 72 h
[10] = test system: NCI/ADR-RES; assay: Cytotoxicity against human MCF7/ADR cells after 72 hrs by MTT assay; type: functional, cell-based
[11] = test system: Bel7402/5-FU; assay: Cytotoxicity against human Bel7402/5-FU cells after 72 hrs by MTT assay; type: functional, cell-based
[12] = Cytotoxicity against human […] cells after 72 hrs by MTT assay; type: functional, cell-based
[13] = test system: MCF7; assay: Cytotoxicity against human MCF7 cells after 72 hrs by MTT assay; type: functional, cell-based; conditions: MCF7, 72 h
[14] = Selectivity ratio of IC50 for human […] cells to IC50 for human Bel7402/5-FU cells; type: functional

Row | SMILES | pIC50 [1] | selectivity ratio [2] | pIC50 [3] | pIC50 [4] | pIC50 [5] | pIC50 [6] | Ratio IC50 [7] | Ratio IC50 [8] | pIC50 [9] | pIC50 [10] | pIC50 [11] | pIC50 [12] | pIC50 [13] | Ratio IC50 [14]
1 | CCCCCCCCCCC(SC(=O)c1cc(OC)c(OC)c(OC)c1)c1cc(OC)c2c(c1OC)/C(=N/O)C=C/C2=N\O (stereo not drawn) | 5.86 | > 36 | 5.33 | < 4.30 | 5.71 | – | – | – | – | – | – | – | – | –
2 | CCCCCCCCCCC(SCCC(C)C)c1cc(OC)c2c(c1OC)/C(=N/O)C=C/C2=N\O (stereo not drawn) | 5.32 | > 10.5 | 5.05 | < 4.30 | 5.26 | – | – | – | – | – | – | – | – | –
3 | CCCCCCCCCCC(SCCCCC)c1cc(OC)c2c(c1OC)/C(=N/O)C=C/C2=N\O (stereo not drawn) | 5.20 | > 7.89 | 4.92 | < 4.30 | 5.14 | – | – | – | – | – | – | – | – | –
4 | CCCCCCCCCCCCCCC(c1cc(OC)c2c(c1OC)/C(=N/O)C=C/C2=N\O)S(=O)(=O)CCC(C)C (stereo not drawn) | 5.56 | > 7.44 | 5.45 | < 4.30 | 5.81 | – | – | – | – | – | – | – | – | –
5 | CCCCC(SC(=O)c1cc(OC)c(OC)c(OC)c1)c1cc(OC)c2c(c1OC)/C(=N/O)C=C/C2=N\O (stereo not drawn) | 5.11 | > 6.47 | 4.83 | < 4.30 | 5.20 | – | – | – | – | – | – | – | – | –
6 | O=c1[nH]cc(F)c(=O)[nH]1 [FLUOROURACIL] | – | > 6.64 | < 4.30 | < 4.30 | 4.91 | 3.95 | 0.05 | 0.26 | 4.54 | 3.29 | 3.03 | 4.64 | 4.58 | 0.02
7 | CCCCCCCCC(SC(=O)c1ccc(OC)c(OC)c1)c1cc(OC)c2c(c1OC)/C(=N/O)C=C/C2=N\O (stereo not drawn) | 6.34 | > 109 | 6.02 | < 4.30 | 6.12 | 6.02 | 4.97 | 10.9 | 4.98 | 5.58 | 6.24 | 6.13 | 4.88 | 1.3
8 | CCCCCCCC(SC(=O)c1cc(OC)c(OC)c(OC)c1)c1cc(OC)c2c(c1OC)/C(=N/O)C=C/C2=N\O (stereo not drawn) | 6.01 | > 51 | 5.92 | < 4.30 | 6.07 | 5.65 | 2.7 | 7.96 | 4.75 | 5.10 | 5.81 | 5.53 | 4.68 | 1.9
9 | CC(C)=CC[C@@H](O)C1=CC(=O)c2c(O)ccc(O)c2C1=O [SHIKONIN] | – | 1.45 | – | 5.90 | 5.99 | – | – | – | – | – | – | – | – | –
10 | CCCCCCCCCCCCC(SC(=O)c1cc(OC)c(OC)c(OC)c1)c1cc(OC)c2c(c1OC)/C(=N/O)C=C/C2=N\O (stereo not drawn) | 5.27 | > 7.85 | 5.12 | < 4.30 | 5.36 | – | – | – | – | – | – | – | – | –
11 | CCCCCCCCC(SCCCCCC)c1cc(OC)c2c(c1OC)/C(=N/O)C=C/C2=N\O (stereo not drawn) | 5.97 | > 46.3 | 5.72 | < 4.30 | 5.94 | – | – | – | – | – | – | – | – | –
12 | CCC(SCCC(C)C)c1cc(OC)c2c(c1OC)/C(=N/O)C=C/C2=N\O (stereo not drawn) | 5.28 | > 22.4 | 4.98 | < 4.30 | 5.48 | – | – | – | – | – | – | – | – | –
13 | CCCCCCCCC(SC(=O)c1cc(OC)c(OC)c(OC)c1)c1cc(OC)c2c(c1OC)/C(=N/O)C=C/C2=N\O (stereo not drawn) | 6.30 | > 100 | 6.04 | < 4.30 | 6.17 | 6.09 | 6.01 | 11.5 | 5.03 | 5.61 | 6.51 | 6.25 | 4.83 | 1.81
14 | CCCCCCCCC(SC(=O)c1ccc(C(F)(F)F)cc1)c1cc(OC)c2c(c1OC)/C(=N/O)C=C/C2=N\O (stereo not drawn) | 5.42 | > 13.1 | 5.20 | < 4.30 | 5.35 | – | – | – | – | – | – | – | – | –
15 | CCCCCCCCC(SCC)c1cc(OC)c2c(c1OC)/C(=N/O)C=C/C2=N\O (stereo not drawn) | 5.63 | > 21.6 | 5.36 | < 4.30 | 5.57 | – | – | – | – | – | – | – | – | –
16 | CCCCCCCCC(SC(=O)c1ccc(C)cc1)c1cc(OC)c2c(c1OC)/C(=N/O)C=C/C2=N\O (stereo not drawn) | 6.28 | > 94.3 | 6.03 | < 4.30 | 6.01 | 5.74 | 4.74 | 7.62 | 4.86 | 5.40 | 6.12 | 6.03 | 4.72 | 1.22
17 | CCCCCCCCCC(SCCC(C)C)c1cc(OC)c2c(c1OC)/C(=N/O)C=C/C2=N\O (stereo not drawn) | 6.04 | > 54.3 | 5.81 | < 4.30 | 6.01 | – | – | – | – | – | – | – | – | –

Row | SMILES | pIC50 [1] | selectivity ratio [2] | pIC50 [3] | pIC50 [4] | pIC50 [5] | pIC50 [6] | Ratio IC50 [7] | Ratio IC50 [8] | pIC50 [9] | pIC50 [10] | pIC50 [11] | pIC50 [12] | pIC50 [13] | Ratio IC50 [14]
18 | CCCCCCCCCC(SC(=O)c1cc(OC)c(OC)c(OC)c1)c1cc(OC)c2c(c1OC)/C(=N/O)C=C/C2=N\O (stereo not drawn) | 6.09 | > 61 | 5.90 | < 4.30 | 6.10 | 6.00 | 3.51 | 15.9 | 4.79 | 5.26 | 5.95 | 5.87 | 4.72 | 1.2
19 | CCCCCCCCCCCCCCC(SC(=O)c1cc(OC)c(OC)c(OC)c1)c1cc(OC)c2c(c1OC)/C(=N/O)C=C/C2=N\O (stereo not drawn) | 5.10 | > 6.27 | 5.01 | < 4.30 | 5.23 | – | – | – | – | – | – | – | – | –
20 | CCCCC(SCCC(C)C)c1cc(OC)c2c(c1OC)/C(=N/O)C=C/C2=N\O (stereo not drawn) | 5.53 | > 17.1 | 5.22 | < 4.30 | 5.69 | – | – | – | – | – | – | – | – | –
21 | CCCCCCCCCCC(SCCCCCC)c1cc(OC)c2c(c1OC)/C(=N/O)C=C/C2=N\O (stereo not drawn) | 4.99 | > 4.86 | 4.73 | < 4.30 | 4.97 | – | – | – | – | – | – | – | – | –
22 | CCCCCCCCC(SC(=O)c1cccs1)c1cc(OC)c2c(c1OC)/C(=N/O)C=C/C2=N\O (stereo not drawn) | 5.91 | > 41 | 5.43 | < 4.30 | 6.02 | – | – | – | – | – | – | – | – | –
23 | CCCCCCC(SC(=O)c1cc(OC)c(OC)c(OC)c1)c1cc(OC)c2c(c1OC)/C(=N/O)C=C/C2=N\O (stereo not drawn) | 5.66 | > 22.6 | 5.31 | < 4.30 | 5.82 | – | – | – | – | – | – | – | – | –
24 | CCCCCCCCCCCCC(SCCC(C)C)c1cc(OC)c2c(c1OC)/C(=N/O)C=C/C2=N\O (stereo not drawn) | 4.89 | > 3.86 | 4.76 | < 4.30 | 4.99 | – | – | – | – | – | – | – | – | –
25 | COc1cccc2c1C(=O)c1c(O)c3c(c(O)c1C2=O)C[C@@](O)(C(=O)CO)C[C@@H]3O[C@H]1C[C@H](N)[C@H](O)[C@H](C)O1.Cl [DOXORUBICIN HYDROCHLORIDE] | – | – | – | – | – | 4.37 | 0.01 | 0.04 | – | 4.40 | 4.96 | 5.88 | 6.38 | 0.12
26 | CCCCCCC(c1cc(OC)c2c(c1OC)/C(=N/O)C=C/C2=N\O)S(=O)(=O)CCC(C)C (stereo not drawn) | 5.13 | > 6.82 | 4.81 | < 4.30 | 5.37 | – | – | – | – | – | – | – | – | –
27 | CCCCCCCCCCCCCCC(SCCC(C)C)c1cc(OC)c2c(c1OC)/C(=N/O)C=C/C2=N\O (stereo not drawn) | 4.65 | > 2.22 | 4.42 | < 4.30 | 4.59 | – | – | – | – | – | – | – | – | –
28 | CCC(SC(=O)c1cc(OC)c(OC)c(OC)c1)c1cc(OC)c2c(c1OC)/C(=N/O)C=C/C2=N\O (stereo not drawn) | 4.90 | > 18.2 | 4.52 | < 4.30 | 4.84 | – | – | – | – | – | – | – | – | –
29 | CCCCCCC(SCCC(C)C)c1cc(OC)c2c(c1OC)/C(=N/O)C=C/C2=N\O (stereo not drawn) | 5.98 | > 48.1 | 5.72 | < 4.30 | 5.89 | – | – | – | – | – | – | – | – | –
30 | CC(=O)O[C@H]1C(=O)[C@@]2(C)[C@H]([C@H](OC(=O)c3ccccc3)[C@]3(O)C[C@H](OC(=O)[C@H](O)[C@@H](NC(=O)c4ccccc4)c4ccccc4)C(C)=C1C3(C)C)[C@]1(OC(C)=O)CO[C@@H]1C[C@@H]2O [PACLITAXEL] | – | – | – | – | – | 4.61 | 0.03 | 0.02 | 6.27 | 4.75 | 4.98 | 6.19 | 6.33 | 0.06
31 | CCCCCCCCC(c1cc(OC)c2c(c1OC)/C(=N/O)C=C/C2=N\O)S(=O)(=O)CCC(C)C (stereo not drawn) | 5.41 | > 12.6 | 5.11 | < 4.30 | 5.89 | – | – | – | – | – | – | – | – | –
32 | CCCCCCCCCCC(SCC)c1cc(OC)c2c(c1OC)/C(=N/O)C=C/C2=N\O (stereo not drawn) | 6.05 | > 56.2 | 5.73 | < 4.30 | 5.98 | – | – | – | – | – | – | – | – | –
33 | CCCCCCCCC(SC(=O)c1ccco1)c1cc(OC)c2c(c1OC)/C(=N/O)C=C/C2=N\O (stereo not drawn) | 5.62 | > 20.7 | 5.28 | < 4.30 | 5.86 | – | – | – | – | – | – | – | – | –
34 | CCCCCCCCCCSC(CCCCCCCCCC)c1cc(OC)c2c(c1OC)/C(=N/O)C=C/C2=N\O (stereo not drawn) | 4.45 | > 1.42 | < 4.30 | < 4.30 | 4.40 | – | – | – | – | – | – | – | – | –
